Laboratory results published in article PMC7437907, “Impact of pH and protein hydrophobicity on norovirus inactivation by heat-denatured lysozyme” (PLoS ONE, 2020).

How the values were obtained:
MNV-1 [1] = assay: Plaque assay for MNV-1 infectivity after exposure to DL preparations at different pH; format: cell-based, murine norovirus strain 1
Procedure: The infectivity of MNV-1 was determined by a plaque assay, as described previously [9]. Briefly, RAW264.7 cells were seeded into 6-well plates (Falcon BD, Franklin Lakes, NJ) at approximately 6 log cells/mL in DMEM containing 5% (v/v) FBS, penicillin (100 U/mL), and streptomycin (100 μg/mL). The plates were incubated at 37°C under 5% CO2 for 18 h. Then, 500 μL/well of samples prepared as described below sections were added to the plates, and the plates were shaken at 20 r/min for 1 h. The inoculated sample was removed, and the wells overlaid with 2 mL of 1.5% (v/v) SeaPlaque agarose (Lonza Japan, Tokyo, Japan) in DMEM containing 5% (v/v) FBS. The plates were incubated at 37°C under 5% CO2 for 48 h. Then, 2 mL of 0.03% (v/v) neutral red solution (Sigma-Aldrich Japan, Tokyo, Japan) was added, and the plates incubated at 37°C under 5% CO2 for 1 h. Thus, visualized plaques were then counted. […] The samples were then diluted 10-fold in DMEM to stop the virus inactivation reaction and analyzed by the plaque assay, as described above.

MNV-1 [2] = details: after exposure to DL for 1 h; cited from earlier work
Text: We have reported that thermally denatured lysozyme (DL) inactivates norovirus. […] Furthermore, DL inactivates norovirus in several foods and is also effective against the hepatitis A virus. However, the conditions for optimal DL norovirus-inactivating effects and the underlying mechanism remain unclear.

interleukin 6 (Il6) gene = assay: Gene expression (qPCR) of RAW264.7 macrophages infected with DL-treated MNV-1: Il6; format: cell-based; details: MNV-1 exposed to 1.0% DL (pH 6.5 before denaturation) for 60 min, MOI 0.01, 24 h, fold-change vs mock by ΔΔCt, n = 3
Procedure: (§1) RAW264.7 cell monolayers (1 × 10^7 cells/mL) in T25 cell flasks (Thermo Fisher Scientific K. K., Tokyo, Japan) were inoculated as described below.
(§2) Live MNV-1 (6 log PFU/mL) was used at a multiplicity of infection (MOI) of 0.01. For some experiments, MNV-1 (6 log PFU/mL) was inactivated by heating at 100°C for 40 min in an oil bath. The heat-treated MNV-1 was then used at MOI of 0.01 (infectivity as determined before heat inactivation). For another set of experiments, 100 μL of MNV-1 (6 log PFU/mL) was mixed with 100 μL of 2.0% of DL (adjusted at pH 6.5 before thermally-denaturation) and allowed to stand at room temperature for 60 min. The mixture was used at MOI of 0.01 (infectivity as before DL treatment).
(§3) The inoculated RAW264.7 cell monolayers were incubated at 37°C under 5% CO2 for 24 h. The cells were then detached by using a cell scraper (Thermo Fisher Scientific) and centrifuged at 300 × g for 5 min. […]
(§4) Total RNA was extracted from inoculated RAW264.7 macrophages using the RNeasy Mini kit (Qiagen, Hilden, Germany), according to the manufacturer’s instructions. […] The resulting cDNA was amplified by quantitative polymerase chain reaction (qPCR) to quantitate the expression levels of interferon β (Ifnb) and interleukin 6 (Il6) genes. […] Fold-changes in mRNA abundance were calculated by the ΔΔCt method, as previously described.

[3] = Surface hydrophobicity, protein stability and aggregation assay kit (PSA200K); format: physicochemical; details: 1% lysozyme solution, pH 4.5–8.5, DL denatured 100°C 40 min, 1X PSA solution, λEx 550 nm, λEm 610 nm, compared with native lysozyme at same pH, p < 0.01, n = 3
Procedure: Hydrophobicity, thiol group content, and circular dichroism (CD) spectra of the different DL preparations were analyzed. Hydrophobicity was measured by using protein stability and aggregation assay kit (PSA200K, Profoldin, Hudson, MA), according to the manufacturer’s instructions. Sample excitation was measured at 550 nm and emission at 610 nm, using a spectrofluorometer (SH-9000, Corona Electric Co., Ltd., Ibaraki, Japan). Thiol group content was determined in a reaction mixture containing 192 μL of deionized water, 20 mM Tris-HCl at pH 8.0, 2.8 μL of Ellman’s reagent [prepared by dissolving 4 mg of 5,5′-dithiobis-(2-nitrobenzoic acid) powder in 1 mL of Tris buffer at pH 7.0], and 200 μL of 1.0% (w/v) DL. After incubation at room temperature for 1 h in the dark, sample absorbance was measured at 412 nm by using a microplate reader (SH-1000 Lab, Corona Electric Co., Ltd.). CD spectra were acquired using a circular dichroism dispersometer (J-720, JASCO Corporation, Tokyo, Japan). For the analysis, DL preparation was diluted to 100 μg/mL in distilled water, and the spectra acquired in the range of 190 to 250 nm, with a scanning speed of 100 nm/min, a bandwidth of 1 nm, and integration frequency of 10.

interferon β (Ifnb) gene = assay: Gene expression (qPCR) of RAW264.7 macrophages infected with DL-treated MNV-1: Ifnb; format: cell-based; details: MNV-1 exposed to 1.0% DL (pH 6.5 before denaturation) for 60 min, MOI 0.01, 24 h, fold-change vs mock by ΔΔCt, n = 3
Procedure: as §1, §2, §3, §4

MNV-1 [4] = assay: MNV-1 inactivation by heat-denatured Lzm peptides (plaque assay); format: cell-based, murine norovirus strain 1; details: peptides at same molar concentration as 1.0% (w/v) lysozyme, or DL 1% pH 3.7; heat-denatured 100°C 40 min; MNV-1 approx. 6 log PFU/mL, 60 min, room temperature; mean, n = 3
Procedure: The infectivity of MNV-1 was determined by a plaque assay, as described previously. Briefly, RAW264.7 cells were seeded into 6-well plates (Falcon BD, Franklin Lakes, NJ) at approximately 6 log cells/mL in DMEM containing 5% (v/v) FBS, penicillin (100 U/mL), and streptomycin (100 μg/mL). The plates were incubated at 37°C under 5% CO2 for 18 h. Then, 500 μL/well of samples prepared as described below sections were added to the plates, and the plates were shaken at 20 r/min for 1 h. The inoculated sample was removed, and the wells overlaid with 2 mL of 1.5% (v/v) SeaPlaque agarose (Lonza Japan, Tokyo, Japan) in DMEM containing 5% (v/v) FBS. The plates were incubated at 37°C under 5% CO2 for 48 h. Then, 2 mL of 0.03% (v/v) neutral red solution (Sigma-Aldrich Japan, Tokyo, Japan) was added, and the plates incubated at 37°C under 5% CO2 for 1 h. Thus, visualized plaques were then counted. The synthesized peptides were dissolved in distilled water to the same molarity as 2.0% (w/v) lysozyme, 14,307 of molecular weight, and heated in an oil bath at 100°C for 40 min, then immediately cooled in ice. Next, 120 μL of MNV-1 solution at 6 log pfu/mL was mixed with 120 μL of the prepared heat-denatured peptides, and allowed to stand for 60 min at room temperature. The samples were immediately diluted 10-fold in DMEM and analyzed by the plaque assay, as described above.

[5] = stated in discussion, no reference given; cited from earlier work
Text: Lysozyme is a positively charged protein with an isoelectric point of 11. We anticipated that in a high-pH solution (pH 6.5–8.5), the intermolecular forces would become stronger, thus, denaturing the protein structure upon heating. In other words, adjusting the pH to a high value would trigger the loosening of the protein structure during thermal denaturation. […] Of ...

Substance	Decrease in MNV-1 infectivity (log reduction) (MNV-1 [4])	other results
DL: thermally denatured egg white lysozyme, prepared at pH 3.7–8.5	0.9 log PFU/mL	Infectivity of MNV-1 after exposure, trend with pH (MNV-1 [1]; 0.1% and 0.5% DL final, preparations at different pH, exposure 60 min, n = 3): tended to decrease as the pH of DL preparations increased; Infectivity of MNV-1 after exposure, versus control (MNV-1 [1]; 1.0% DL final, DL preparations at pH 4.5–8.5, exposure 1 min, control distilled water, Dunnett's test p < 0.01, n = 3): significantly lower than that of the control; Average expansion of MNV-1 particle size (MNV-1 [2]): 16.37 nm; Expression of the Il6 gene (interleukin 6 (Il6) gene): did not increase; Surface hydrophobicity (fluorescence intensity) [3]: significantly higher than that of native lysozyme at any pH; Expression of the Ifnb gene (interferon β (Ifnb) gene): did not increase
ITASVNCAKKIVSDGNGMNAWVAWRNRCKGTDVQAWIR [Lzm 88–125, synthetic peptide containing lysozyme residues 88–125]	0.2 log PFU/mL	–
KVFGRCELAAAMKRHGLDNYRGYSLGNWVCAAKFE [Lzm 1–35, synthetic peptide containing lysozyme residues 1–35]	1.7 log PFU/mL	–
Lysozyme: egg white lysozyme, single-chain polypeptide consisting of 129 amino acids	–	Isoelectric point [5]: 11
RCELAAAMKREGLDNYRGYSLGNWVCAAEFESNFN [Lzm R1, variant of Lzm 5–39, basic amino acids replaced with acidic amino acids]	lost	–
RCELAAAMKRHGLDNYRGYSLGNNVCAAKNESNNN [Lzm R2, variant of Lzm 5–39, aromatic amino acids replaced to reduce hydrophobicity]	lost	–
RCELAAAMKRHGLDNYRGYSLGNWVCAAKFESNFN [Lzm 5–39, synthetic peptide of lysozyme residues 5–39]	1.7 log PFU/mL	–
RCNLAAAMKRHGLNNYRGYSLGNWVCAAKFNSNFN [Lzm R3, variant of Lzm 5–39, all acidic amino acids replaced with uncharged amino acids]	2.0 log PFU/mL	–
